Where a name gives a salt, the structure may show the parent alone. Read-outs that look alike come from different tables or passages of the source.
What was measured:
human CYP2C19 [1] = target: T1, human CYP2C19 (Homo sapiens, UniProt P33261); assay: biochemical
[2] = target: Photinus pyralis (firefly) luciferase (Photinus pyralis, UniProt P08659); assay: biochemical; type: biochemical
human CYP2D6 [3] = target: T2, human CYP2D6 (Homo sapiens, UniProt P10635); assay: biochemical
human CYP1A2 [4] = target: T3, human CYP1A2 (Homo sapiens, UniProt P05177); conditions: for CYP1A2 Efficacy (in parenthesis): human
T3 sequence (P05177 1-516): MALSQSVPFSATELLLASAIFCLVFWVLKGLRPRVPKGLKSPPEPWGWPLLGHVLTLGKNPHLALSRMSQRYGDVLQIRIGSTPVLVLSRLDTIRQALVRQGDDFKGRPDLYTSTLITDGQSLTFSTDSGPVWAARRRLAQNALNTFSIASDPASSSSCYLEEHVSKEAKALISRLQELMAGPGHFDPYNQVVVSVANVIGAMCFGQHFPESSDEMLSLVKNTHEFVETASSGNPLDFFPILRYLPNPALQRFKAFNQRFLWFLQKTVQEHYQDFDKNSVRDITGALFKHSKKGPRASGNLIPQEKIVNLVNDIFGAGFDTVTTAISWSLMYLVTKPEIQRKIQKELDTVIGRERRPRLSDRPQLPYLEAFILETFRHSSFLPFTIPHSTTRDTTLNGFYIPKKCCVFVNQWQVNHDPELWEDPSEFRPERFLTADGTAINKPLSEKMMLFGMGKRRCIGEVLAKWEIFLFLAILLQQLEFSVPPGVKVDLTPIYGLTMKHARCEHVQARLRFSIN

human CYP2C9 [5] = target: T4, human CYP2C9 (Homo sapiens, UniProt P11712); conditions: for CYP2C9 Efficacy (in parenthesis): human
T4 sequence (P11712 whole entry): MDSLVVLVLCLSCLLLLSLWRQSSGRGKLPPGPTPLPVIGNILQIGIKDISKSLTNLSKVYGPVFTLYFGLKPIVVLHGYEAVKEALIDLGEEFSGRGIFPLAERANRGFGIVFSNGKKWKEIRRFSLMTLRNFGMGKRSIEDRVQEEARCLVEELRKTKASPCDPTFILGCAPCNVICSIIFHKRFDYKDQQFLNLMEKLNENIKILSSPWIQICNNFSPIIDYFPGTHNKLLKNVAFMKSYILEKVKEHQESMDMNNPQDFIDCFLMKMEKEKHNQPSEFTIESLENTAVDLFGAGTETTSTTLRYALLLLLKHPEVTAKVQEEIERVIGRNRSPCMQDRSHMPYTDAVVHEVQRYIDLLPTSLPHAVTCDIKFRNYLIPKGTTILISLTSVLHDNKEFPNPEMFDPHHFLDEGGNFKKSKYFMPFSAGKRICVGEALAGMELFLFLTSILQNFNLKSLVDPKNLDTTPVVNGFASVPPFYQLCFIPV

human CYP2C9 [6] = target: T4, human CYP2C9; assay: biochemical
human CYP1A2 [7] = target: T3, human CYP1A2; assay: biochemical; conditions: for IC50: CYP1A2 IC50 (half-maximal inhibitory concentration)
CYP3A4 = CYP3A4 (Homo sapiens, UniProt P08684)
CYP3A4, sequence (P08684 whole entry): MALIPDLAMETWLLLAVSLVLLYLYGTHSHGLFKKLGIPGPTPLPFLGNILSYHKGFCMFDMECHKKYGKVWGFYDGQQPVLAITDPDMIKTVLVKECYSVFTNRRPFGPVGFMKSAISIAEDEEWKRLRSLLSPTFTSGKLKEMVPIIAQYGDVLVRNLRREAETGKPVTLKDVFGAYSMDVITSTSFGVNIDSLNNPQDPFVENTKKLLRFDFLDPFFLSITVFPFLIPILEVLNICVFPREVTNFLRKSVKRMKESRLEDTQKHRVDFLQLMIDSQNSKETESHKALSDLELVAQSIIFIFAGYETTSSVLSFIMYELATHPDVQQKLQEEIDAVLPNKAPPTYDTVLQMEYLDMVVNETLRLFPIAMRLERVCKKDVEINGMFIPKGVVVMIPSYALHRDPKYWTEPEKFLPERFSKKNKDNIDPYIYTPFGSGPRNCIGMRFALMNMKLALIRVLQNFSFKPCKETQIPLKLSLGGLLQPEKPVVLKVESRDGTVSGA

human CYP2C19 [8] = target: T1, human CYP2C19; conditions: for CYP2C19 Efficacy (in parenthesis): human
human CYP2D6 [9] = target: T2, human CYP2D6; conditions: human
[10] = CYP2D6 AC50 (half-maximal activity concentration)
[11] = CYP2C19 AC50 (half-maximal activity concentration)
[12] = CYP1A2 AC50 (half-maximal activity concentration)
[13] = CYP2C9 AC50 (half-maximal activity concentration)
[14] = CYP2C19 IC50 (half-maximal inhibitory concentration)
[15] = CYP2D6 IC50 (half-maximal inhibitory concentration)
[16] = CYP2C9 IC50 (half-maximal inhibitory concentration)

T2 sequence (P10635 whole entry): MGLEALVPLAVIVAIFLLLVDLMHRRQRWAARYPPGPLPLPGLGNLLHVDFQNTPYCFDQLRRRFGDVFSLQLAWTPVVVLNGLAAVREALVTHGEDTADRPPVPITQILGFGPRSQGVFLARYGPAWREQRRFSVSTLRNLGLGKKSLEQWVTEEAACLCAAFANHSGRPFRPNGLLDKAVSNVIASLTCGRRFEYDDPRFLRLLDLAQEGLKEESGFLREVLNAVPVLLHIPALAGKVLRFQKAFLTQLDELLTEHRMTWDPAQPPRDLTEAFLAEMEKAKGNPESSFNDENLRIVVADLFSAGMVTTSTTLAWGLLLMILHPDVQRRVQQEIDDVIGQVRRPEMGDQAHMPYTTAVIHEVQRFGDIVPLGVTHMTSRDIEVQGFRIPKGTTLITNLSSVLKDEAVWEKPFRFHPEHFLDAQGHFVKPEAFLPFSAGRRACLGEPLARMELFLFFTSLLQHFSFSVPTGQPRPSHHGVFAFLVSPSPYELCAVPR
Photinus pyralis (firefly) luciferase, sequence (P08659 whole entry): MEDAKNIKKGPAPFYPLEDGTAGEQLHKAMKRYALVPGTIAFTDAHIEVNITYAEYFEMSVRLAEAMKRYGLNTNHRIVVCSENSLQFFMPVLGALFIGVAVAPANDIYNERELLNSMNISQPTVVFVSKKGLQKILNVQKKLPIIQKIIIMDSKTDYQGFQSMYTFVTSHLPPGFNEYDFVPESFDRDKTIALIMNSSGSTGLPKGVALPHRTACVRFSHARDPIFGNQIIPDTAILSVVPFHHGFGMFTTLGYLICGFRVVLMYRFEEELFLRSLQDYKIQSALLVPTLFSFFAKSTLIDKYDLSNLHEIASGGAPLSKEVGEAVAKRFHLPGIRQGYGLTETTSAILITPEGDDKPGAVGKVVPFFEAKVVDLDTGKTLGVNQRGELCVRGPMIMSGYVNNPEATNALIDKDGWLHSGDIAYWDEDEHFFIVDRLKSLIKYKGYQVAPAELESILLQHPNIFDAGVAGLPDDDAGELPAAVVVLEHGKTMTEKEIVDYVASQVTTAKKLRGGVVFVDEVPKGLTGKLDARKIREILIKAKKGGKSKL
T1 sequence (P33261 whole entry): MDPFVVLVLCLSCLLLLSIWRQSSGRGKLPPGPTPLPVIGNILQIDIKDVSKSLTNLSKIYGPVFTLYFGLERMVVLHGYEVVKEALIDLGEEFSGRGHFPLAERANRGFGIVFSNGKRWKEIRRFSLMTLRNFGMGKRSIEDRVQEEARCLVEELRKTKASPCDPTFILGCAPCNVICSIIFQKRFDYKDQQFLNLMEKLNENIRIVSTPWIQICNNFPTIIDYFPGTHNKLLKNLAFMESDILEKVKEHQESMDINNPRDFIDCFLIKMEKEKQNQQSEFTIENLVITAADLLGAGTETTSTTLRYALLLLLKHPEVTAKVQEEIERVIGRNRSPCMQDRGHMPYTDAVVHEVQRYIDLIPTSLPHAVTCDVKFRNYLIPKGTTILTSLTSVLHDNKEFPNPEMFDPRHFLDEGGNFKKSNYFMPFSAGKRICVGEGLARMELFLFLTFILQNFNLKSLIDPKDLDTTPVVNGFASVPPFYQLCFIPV

## CN1CCC(N(Cc2cccs2)c2ccccc2)CC1 [Thenalidine]
Human CYP2C19 [1]; CYP2C19 IC50
  IC50: 36.8 µM
[2]
  Luciferase IC50: Inactive
Human CYP2D6 [3]; [10]
  AC50: 0.53 µM
Human CYP2D6 [3]; CYP2D6 IC50
  IC50: 0.53 µM
Human CYP1A2 [4]
  CYP1A2 IC50: Inactive
Human CYP2C9 [5]
  CYP2C9 IC50: Inactive

## Cc1ccc(N(CC2=NCCN2)c2cccc(O)c2)cc1 [Phentolamine mesilate]
Human CYP2C19 [1]; CYP2C19 IC50
  IC50: 14.6 µM
[2]
  Luciferase IC50: Inactive
Human CYP2D6 [3]; CYP2D6 IC50
  IC50: 0.65 µM
Human CYP1A2 [4]
  CYP1A2 IC50: Inactive
Human CYP2C9 [5]
  CYP2C9 IC50: Inactive

## O=C1NCN(c2ccccc2)C12CCN(CC1COc3ccccc3O1)CC2 (centres unmarked) [Spiroxatrine]
Human CYP2C19 [1]; CYP2C19 IC50
  IC50: 8.64 µM
[2]
  Luciferase IC50: Inactive
Human CYP2D6 [3]; CYP2D6 IC50
  IC50: 0.19 µM
Human CYP2C9 [6]; CYP2C9 IC50
  IC50: 10.8 µM
Human CYP1A2 [4]
  CYP1A2 IC50: Inactive

## O=c1[nH]sc2ccccc12 [1,2-Benzisothiazolin-3-one]
Human CYP2C19 [1]; [11]
  AC50: 2.38 µM
Human CYP1A2 [7]; [12]
  AC50: 31.7 µM
Human CYP2D6 [3]; [10]
  AC50: 11.3 µM
Human CYP2C9 [6]; [13]
  AC50: 34.3 µM
CYP3A4
  CYP3A4 AC50 (half-maximal activity concentration): Inconclusive inhibitor

## COCC(=O)O[C@]1(CCN(C)CCCc2nc3ccccc3[nH]2)CCc2cc(F)ccc2[C@@H]1C(C)C [Mibefradil dihydrochloride]
Human CYP2C19 [1]
  IC50: 38.9 µM
[2]
  Luciferase IC50: Inactive
Human CYP2D6 [3]; CYP2D6 IC50
  IC50: 0.53 µM
Human CYP1A2 [4]
  CYP1A2 IC50: Inactive
Human CYP2C9 [5]
  CYP2C9 IC50: Inactive

## C=CC[C@]1(O)CC[C@H]2[C@@H]3CCC4=CC(=O)CCC4=C3C=C[C@@]21C [Altrenogest]
Human CYP2C19 [1]
  IC50: 8.15 ± 2.81 µM
[2]
  Luciferase IC50: Inactive
Human CYP2D6 [3]
  IC50: 46.9 ± 11.3 µM
Human CYP2C9 [6]
  IC50: 14.8 ± 4.35 µM
Human CYP1A2 [4]
  CYP1A2 IC50: Inactive

## CC(C)(C)c1ccc(O)c(O)c1 [4-tert-Butylcatechol]
Human CYP2C19 [1]; [11]
  AC50: 13.6 µM
Human CYP1A2 [7]; [12]
  AC50: 60 µM
Human CYP2D6 [3]; [10]
  AC50: 9.07 µM
Human CYP2C9 [6]; [13]
  AC50: 73.7 µM
CYP3A4
  CYP3A4 AC50 (half-maximal activity concentration): Inactive

## Oc1ccc(-c2ccc(O)cc2)cc1 [4,4'-Biphenyldiol]
Human CYP1A2 [7]
  AC50: 32.1 µM
Human CYP2D6 [3]
  AC50: 61.3 µM
Human CYP2C9 [6]
  AC50: 9.08 µM
CYP3A4
  CYP3A4 AC50 (half-maximal activity concentration): Inconclusive inhibitor
Human CYP2C19 [8]
  CYP2C19 AC50 (half-maximal activity concentration): Inconclusive inhibitor

## CCN(CC)CCOC(=O)C(C)(c1ccccc1)c1ccccc1 [Aprofene]
Human CYP2C19 [1]; CYP2C19 IC50
  IC50: 12.3 µM
[2]
  Luciferase IC50: Inactive
Human CYP2D6 [3]
  IC50: 1.57 µM
Human CYP2C9 [6]
  IC50: 12.9 µM
Human CYP1A2 [4]
  CYP1A2 IC50: Inactive

## N=C(N)N/N=C/c1c(Cl)cccc1Cl [Guanabenz]
Human CYP1A2 [7]; [12]
  AC50: 14.4 µM
Human CYP2D6 [3]; [10]
  AC50: 13.8 µM
Human CYP2C9 [6]; [13]
  AC50: 37.7 µM
CYP3A4
  CYP3A4 AC50 (half-maximal activity concentration): Inactive
Human CYP2C19 [8]
  CYP2C19 AC50 (half-maximal activity concentration): Inactive

## Oc1cc(Cl)c(Cl)c(Cl)c1 [3,4,5-Trichlorophenol]
Human CYP2C19 [1]; [11]
  AC50: 19.5 µM
Human CYP1A2 [7]; [12]
  AC50: 26.1 µM
Human CYP2D6 [3]; [10]
  AC50: 29 µM
Human CYP2C9 [6]; [13]
  AC50: 11.1 µM
CYP3A4
  CYP3A4 AC50 (half-maximal activity concentration): Inconclusive inhibitor

## COC(=O)c1cc(Cl)ccc1[N+](=O)[O-] [Methyl 5-chloro-2-nitrobenzoate]
Human CYP2C19 [1]
  AC50: 80 µM
Human CYP1A2 [7]
  AC50: 7.13 µM
Human CYP2D6 [3]
  AC50: 61.4 µM
Human CYP2C9 [6]
  AC50: 49.3 µM
CYP3A4
  CYP3A4 AC50 (half-maximal activity concentration): Inactive

## O=C(c1ccccc1)c1ccc(O)cc1 [4-Hydroxybenzophenone]
Human CYP2C19 [1]; [11]
  AC50: 31.7 µM
Human CYP1A2 [7]; [12]
  AC50: 29 µM
Human CYP2D6 [3]; [10]
  AC50: 36.1 µM
Human CYP2C9 [6]; [13]
  AC50: 2.7 µM
CYP3A4
  CYP3A4 AC50 (half-maximal activity concentration): Inactive

## O=C(c1ccc(O)cc1)c1ccc(O)cc1 [4,4'-Dihydoxybenzophenone]
Human CYP2C19 [1]
  AC50: 31.8 ± 10.5 µM
Human CYP1A2 [7]
  AC50: 38.5 ± 2.51 µM
Human CYP2D6 [3]
  AC50: 63.5 ± 20.9 µM
Human CYP2C9 [6]
  AC50: 0.77 ± 0.4 µM
CYP3A4; mean ± standard deviation from three experiments, activity call in words where no AC50
  CYP3A4 AC50 (half-maximal activity concentration): Inconclusive inhibitor

## CCCC(C(=O)OCCN(CC)CC)(c1ccccc1)c1ccccc1 [Proadifen hydrochloride]
Human CYP2C19 [1]; CYP2C19 IC50
  IC50: 19.1 µM
[2]
  Luciferase IC50: Inactive
Human CYP2D6 [3]; CYP2D6 IC50
  IC50: 0.2 µM
Human CYP2C9 [6]; CYP2C9 IC50
  IC50: 12.1 µM
Human CYP1A2 [4]
  CYP1A2 IC50: Inactive

## O=S(=O)(c1ccccc1)c1ccc(Cl)cc1 [4-Chlorophenyl phenyl sulfone]
Human CYP2C19 [1]
  AC50: 4.75 µM
Human CYP1A2 [7]
  AC50: 43.2 µM
Human CYP2D6 [3]
  AC50: 66.7 µM
Human CYP2C9 [6]
  AC50: 5.88 µM
CYP3A4
  CYP3A4 AC50 (half-maximal activity concentration): Inactive

## CC(C)COCC(CN(Cc1ccccc1)c1ccccc1)N1CCCC1 (centres unmarked) [Bepridil]
[2]
  Luciferase IC50: Inactive
Human CYP2D6 [3]; CYP2D6 IC50
  IC50: 0.06 µM
Human CYP1A2 [4]
  CYP1A2 IC50: Inactive

## CC(NCCC(c1ccccc1)c1ccccc1)c1ccccc1 (centres unmarked) [Fendiline hydrochloride]
Human CYP2C19 [1]; CYP2C19 IC50
  IC50: 5.65 µM
[2]
  Luciferase IC50: Inactive
Human CYP2D6 [3]; CYP2D6 IC50
  IC50: 0.23 µM
Human CYP2C9 [6]; CYP2C9 IC50
  IC50: 15.5 µM
Human CYP1A2 [4]
  CYP1A2 IC50: Inactive

## O=C1c2ccccc2C(=O)C1C(=O)C(c1ccccc1)c1ccccc1 [Diphacinone]
Human CYP2C19 [1]; [14]
  IC50: 34.8 µM
Human CYP1A2 [7]
  IC50: 28.3 µM
Human CYP2D6 [3]; [15]
  IC50: 32.3 µM
Human CYP2C9 [6]; [16]
  IC50: 0.53 µM
Human CYP2C9 [6]; IC50 CYP2C9 assay
  IC50: 0.5 µM
Human CYP1A2 [4]
  CYP1A2 Efficacy (in parenthesis): 28.28 ± 11.08 (-93 ± 7) %
Human CYP2D6 [9]
  CYP2D6 Efficacy (in parenthesis): 32.29 ± 4.12 (-49 ± 4) %
Human CYP2C19 [8]
  CYP2C19 Efficacy (in parenthesis): 34.81 ± 11.45 (-80 ± 23) %
Human CYP2C9 [5]
  CYP2C9 Efficacy (in parenthesis): 0.53 ± 0.74 (-101 ± 4) %

## Oc1ccc(Sc2ccc(O)cc2)cc1 [4,4'-Thiodiphenol]
Human CYP2C19 [1]
  AC50: 36 µM
Human CYP2D6 [3]
  AC50: 30.9 µM
Human CYP2C9 [6]
  AC50: 3.66 µM
Human CYP1A2 [4]
  CYP1A2 AC50 (half-maximal activity concentration): Inconclusive inhibitor
CYP3A4
  CYP3A4 AC50 (half-maximal activity concentration): Inconclusive inhibitor

## CCCCC(CC)CN1CN(CC(CC)CCCC)CC(C)(N)C1 (centres unmarked) [Hexetidine]
[2]
  Luciferase IC50: Inactive
Human CYP2D6 [3]; CYP2D6 IC50
  IC50: 0.48 µM
Human CYP1A2 [4]
  CYP1A2 IC50: Inactive
Human CYP2C19 [8]
  CYP2C19 IC50: Inactive
Human CYP2C9 [5]
  CYP2C9 IC50: Inactive

## NS(=O)(=O)c1ccc(Cl)c(S(N)(=O)=O)c1 [Clofenamide]
Human CYP2D6 [3]; [10]
  AC50: 30.6 µM
Human CYP2C9 [6]; [13]
  AC50: 19.8 µM
Human CYP1A2 [4]
  CYP1A2 AC50 (half-maximal activity concentration): Inactive
CYP3A4
  CYP3A4 AC50 (half-maximal activity concentration): Inactive
Human CYP2C19 [8]
  CYP2C19 AC50 (half-maximal activity concentration): Inactive

## C[C@@H](O[C@H]1OCCN(Cc2n[nH]c(=O)[nH]2)[C@H]1c1ccc(F)cc1)c1cc(C(F)(F)F)cc(C(F)(F)F)c1 [Aprepitant]
Human CYP2C19 [1]; CYP2C19 IC50
  IC50: 23.9 µM
[2]
  Luciferase IC50: Inactive
Human CYP2D6 [3]; CYP2D6 IC50
  IC50: 25 µM
Human CYP2C9 [6]; CYP2C9 IC50
  IC50: 13.8 µM
Human CYP1A2 [4]
  CYP1A2 IC50: Inactive

## CN(C)C(=O)Nc1ccc(Cl)c(Cl)c1 [Diuron]
Human CYP2C19 [1]; [14]
  IC50: 39.5 µM
Human CYP1A2 [7]
  IC50: 0.86 µM
Human CYP2D6 [3]; [15]
  IC50: 42.1 µM
Human CYP2C9 [6]; [16]
  IC50: 69.4 µM
Human CYP1A2 [4]
  CYP1A2 Efficacy (in parenthesis): 0.86 ± 0.12 (-103 ± 3) %
Human CYP2D6 [9]
  CYP2D6 Efficacy (in parenthesis): 42.09 ± 18.16 (-73 ± 17) %
Human CYP2C19 [8]
  CYP2C19 Efficacy (in parenthesis): 39.45 ± 16.91 (-98 ± 5) %
Human CYP2C9 [5]
  CYP2C9 Efficacy (in parenthesis): 69.41 ± 26.11 (-48 ± 19) %

## COc1ccc([C@@H]2Sc3ccccc3N(CCN(C)C)C(=O)[C@@H]2OC(C)=O)cc1 [Diltiazem]
[2]
  Luciferase IC50 (half-maximal inhibitory concentration): Inactive
Human CYP2D6 [3]; [15]
  IC50: 19.1 µM
Human CYP1A2 [4]
  CYP1A2 IC50 (half-maximal inhibitory concentration): Inactive
Human CYP2C19 [8]
  CYP2C19 IC50 (half-maximal inhibitory concentration): Inactive
Human CYP2C9 [5]
  CYP2C9 IC50 (half-maximal inhibitory concentration): Inactive
